Where “and” joins values, the source holds several entries; their conditions need not be identical. Equal values may be shown once.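 Tested at 5 concentrations; 48 h exposure; 96-well plates; endpoints linearly interpolated, else capped at highest concentration. The concentration for 50% growth inhibition is given as GI50. TGI marks complete inhibition of growth.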
Tests used:
Assay in all cases: NCI tumour cell line growth inhibition, 48 h
[1] = system: U251 CNS
[2] = system: PC-3 prostate
[3] = system: HS 578T breast
[4] = system: NCI-H522 lung
[5] = system: OVCAR-8 ovarian
[6] = system: SNB-19 CNS
[7] = system: HOP-62 NSCLC
[8] = system: MDA-MB-435
[9] = system: HCT-116 colon
[10] = system: OVCAR-4 ovarian

SMILES	GI50 [1]	TGI [1]	GI50 [2]	TGI [2]	GI50 [3]	TGI [3]	GI50 [4]	TGI [4]	GI50 [5]	TGI [5]	GI50 [6]	TGI [6]	GI50 [7]	TGI [7]	GI50 [8]	TGI [8]	GI50 [9]	TGI [9]	GI50 [10]	TGI [10]
C1CCC([PH+](C2CCCCC2)C2CCCCC2[PH+](C2CCCCC2)C2CCCCC2)CC1.[Au].[CH-]1CCCCC1CC1CCCC[N-]1 (centres undefined)	199 nM	1.59 µM	283 nM	1.93 µM	276 nM	1.69 µM	290 nM	1.56 µM	264 nM	> 100 µM	327 nM	1.46 µM	349 nM	2.58 µM	286 nM	1.01 µM	–	–	–	–
C=CC(=O)Nc1cccc(Oc2nc(Nc3ccc(N4CCN(C)CC4)cc3)nc3ccsc23)c1	2890 nM and 2970 nM	> 10 µM and 9.01 µM	2360 nM and 2870 nM	8.25 µM and 7.33 µM	6160 nM and 4880 nM	> 10 µM and 41.3 µM	430 nM and 1270 nM	2.21 µM and 3.04 µM	3590 nM and 3630 nM	> 10 µM and 11.7 µM	3510 nM and 3350 nM	> 10 µM and 14.1 µM	3710 nM and 3730 nM	> 10 µM and 15.7 µM	1710 nM and 1930 nM	3.69 µM and 4.12 µM	1480 nM and 1810 nM	2.93 µM and 3.33 µM	2740 nM and 3230 nM	> 10 µM and 11.4 µM
Cc1ccc2c(C3Cc4ccccc4N3C(=O)/C=C\C(=O)O)c(C)[nH]c2c1 (centres undefined)	–	> 100 µM	–	–	–	–	–	48.6 µM	–	> 100 µM	–	> 100 µM	–	> 100 µM	–	–	–	> 100 µM	–	> 100 µM
O=C1OCC2=C1C(c1ccccc1)c1cc3c(cc1N2)OCO3 (centres undefined)	40.9 nM	> 50.1 µM	40.4 nM	> 100 µM	46.9 nM	> 84.4 µM	< 11 nM	1.56 µM	43.7 nM	> 48.2 µM	56.8 nM	> 100 µM	46.2 nM	33.4 µM	–	0.026 µM	35.2 nM	> 100 µM	82.3 nM	> 48.3 µM
CO[C@H]1CC(O[C@@H]2/C(C)=C/C[C@@H]3C[C@@H](C[C@]4(C=C[C@H](C)[C@@H](C5CCCCC5)O4)O3)OC(=O)[C@@H]3C=C(C)[C@@H](O)[C@H]4OC/C(=C\C=C\[C@@H]2C)[C@]43O)O[C@@H](C)C1O[C@H]1C[C@H](OC)[C@@H](O)[C@H](C)O1 (some centres undefined)	–	–	1080 nM	2.68 µM	2450 nM	> 100 µM	–	–	2070 nM	5.29 µM	2030 nM	6.52 µM	1730 nM	3.22 µM	1570 nM	3.13 µM	1400 nM	2.72 µM	1520 nM	2.88 µM
CC(=O)/C=C/c1cn(C(=O)OC(C)(C)C)c2ccc(Br)cc12	12500 nM	25.5 µM	18200 nM	> 79.2 µM	26800 nM	65.4 µM	17700 nM	63.3 µM	16200 nM	39 µM	15400 nM	30.1 µM	15800 nM	30.4 µM	9970 nM	25.9 µM	8390 nM	21.6 µM	25700 nM	> 100 µM
N#CC(C#N)=C1NC(=O)CC(=O)N1	–	> 100 µM	–	–	–	–	–	> 100 µM	–	> 100 µM	–	> 100 µM	–	> 100 µM	–	–	–	> 100 µM	–	> 100 µM
O=C1NC(=O)C(N2C(=O)c3ccccc3C2=O)CC1O (centres undefined)	> 100000 nM	> 100 µM	> 100000 nM	> 100 µM	> 100000 nM	> 100 µM	> 100000 nM	> 100 µM	> 100000 nM	> 100 µM	> 100000 nM	> 100 µM	> 100000 nM	> 100 µM	> 100000 nM	> 100 µM	> 100000 nM	> 100 µM	> 100000 nM	> 100 µM
OCC1OC(n2cnc3c(N/N=C\c4ccccn4)ncnc32)C(O)C1O (centres undefined)	400 nM	> 100 µM	361 nM	> 33.6 µM	1780 nM	> 51.4 µM	182 nM	> 100 µM	164 nM	53.7 µM	364 nM	> 100 µM	289 nM	2.14 µM	430 nM	> 100 µM	110 nM	10.8 µM	115 nM	–
O=C1NC(=O)C2C(=O)NC(=O)C1C2c1c(Cl)cccc1Cl (centres undefined)	–	> 100 µM	–	–	–	–	–	> 100 µM	–	> 100 µM	–	> 100 µM	–	> 100 µM	–	–	–	> 58.8 µM	–	> 100 µM
CC(=O)Nc1ccc(SC#N)c2c(NC(C)=O)cccc12	–	> 100 µM	–	–	–	–	–	> 78.4 µM	–	> 100 µM	–	> 100 µM	–	> 100 µM	–	–	–	> 100 µM	–	> 100 µM
CCC(=O)C12OC3OC(C)(C)OC3C1OC(C)(C)O2 (centres undefined)	–	> 100 µM	–	–	–	–	–	> 100 µM	–	> 100 µM	–	> 100 µM	–	> 100 µM	–	–	–	> 100 µM	–	> 100 µM
N#CC(=C1C=CC(=NO)C=C1)c1ccc(Cl)cc1	–	34.3 µM	–	–	–	–	–	7.66 µM	–	60.3 µM	–	> 100 µM	–	41.6 µM	–	–	–	21.6 µM	–	60.4 µM
COc1cc2nc(N3CCCC3)nc(NCCc3ccccc3)c2cc1OC	–	–	1680 nM	3.91 µM	–	–	1990 nM	4.54 µM	2140 nM	6.05 µM	1740 nM	3.3 µM	1930 nM	3.86 µM	1740 nM	3.25 µM	–	–	1760 nM	3.71 µM
O=C1CC(c2c[nH]c3ccccc23)C(=O)N1 (centres undefined)	–	> 100 µM	–	–	–	–	–	–	–	> 100 µM	–	–	–	> 100 µM	–	–	–	> 100 µM	–	> 100 µM
COc1cc(C(=O)C/C(CCC(=O)Nc2ccccc2[N+](=O)[O-])=N\NC(N)=O)ccc1O	–	> 100 µM	–	–	–	–	–	> 100 µM	–	> 100 µM	–	> 100 µM	–	> 100 µM	–	–	–	> 100 µM	–	–
COC(=O)C1CC2CC(=NNC(N)=O)CC2C1 (centres undefined)	–	> 100 µM	–	–	–	–	–	> 100 µM	–	> 100 µM	–	> 100 µM	–	> 100 µM	–	–	–	> 100 µM	–	> 100 µM
CCN(CC)CC1c2ccccc2C(CNc2ccccc2)N1C (centres undefined)	–	–	–	–	–	–	–	> 100 µM	–	> 100 µM	–	> 100 µM	–	> 100 µM	–	–	–	–	–	> 100 µM
